Experimental data from article PMC7366380, “Discovery of a Potent and Selective Covalent Inhibitor and Activity-Based Probe for the Deubiquitylating Enzyme UCHL1, with Antifibrotic Activity” (Journal of the American Chemical Society, 2020).

What was measured:
[1] = test system: 20 DUBs; test: Biochemical DUB selectivity profiling (FP and FI assays), whole panel
[2] = biological target: T1, UCHL5 (Homo sapiens, UniProt Q9Y5K5); test: biochemical
T1 sequence (Q9Y5K5 1-329): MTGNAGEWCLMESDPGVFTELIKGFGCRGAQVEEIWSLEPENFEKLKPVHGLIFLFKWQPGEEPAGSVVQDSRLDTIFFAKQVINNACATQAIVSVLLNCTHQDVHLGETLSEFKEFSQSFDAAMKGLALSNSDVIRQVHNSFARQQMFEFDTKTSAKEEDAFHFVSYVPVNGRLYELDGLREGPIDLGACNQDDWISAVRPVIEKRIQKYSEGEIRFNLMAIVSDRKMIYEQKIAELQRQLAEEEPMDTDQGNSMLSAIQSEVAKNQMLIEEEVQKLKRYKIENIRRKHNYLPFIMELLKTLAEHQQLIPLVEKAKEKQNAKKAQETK

[3] = biological target: T2, UCHL1 (Homo sapiens, UniProt P09936); test: UCHL1 covalent adduct determination by LC-ESI-MS; type: binding; parameters: (residues 1-223, Uniprot P09936); GST (N, cleaved yes); made in house; host or cells: E. coli Rosetta 2(DE3), pGEX-6P-1; conditions: UCHL1 5 μM, compound 13 μM, 60 min
T2 sequence (P09936 1-223): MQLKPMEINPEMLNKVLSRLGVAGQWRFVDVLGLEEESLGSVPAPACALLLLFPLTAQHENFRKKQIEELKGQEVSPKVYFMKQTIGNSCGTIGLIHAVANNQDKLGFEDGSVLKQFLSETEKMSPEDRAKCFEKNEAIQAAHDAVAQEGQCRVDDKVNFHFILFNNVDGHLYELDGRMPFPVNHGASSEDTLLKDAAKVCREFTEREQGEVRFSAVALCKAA
Procedure: values were plotted against compound concentration to afford the apparent second order rate constant for inhibition, ka/I. The absolute value of the second order rate constant kobs/I was […]
Reversible inhibition assay: Jump dilution assays were performed by incubating UCHL1 […]
negative controls (iodoacetamide (IAA) 10 mM) for 30 min at room temperature. The reaction […]
intensity read immediately for 1 h.
UCHL1 covalent adduct determination […]
pH 7.5) was incubated with compound 1, 2 (2.5 equiv.) or DMSO for 1 h at room temperature.
The excess ligand was removed by washing with buffer D in an Amicon® Ultra MWCO 10 kDa centrifugation spin filter three times. The protein-adducts were desalted using 3× SDB-XC polystyrene-divinylbenzene copolymer extraction disks, following published methods.5 Samples were eluted with 50% (v/v) MeCN 0.5% (v/v) formic acid in LC-MS grade water and analyzed by LC-ESI (ACQUITY UPLC H-Class PLUS instrument (Waters)) using an ACQUITY UPLC BEH C4 column (Waters) coupled with Waters LCT Premier MS detector.
UCHL1 covalent adduct site identification […]
The MS data was analyzed by PEAKS Studio 8.5 (Bioinformatics Solutions Inc.). […]
Homogeneous time resolved fluorescence (HTRF) assay […]
BME) and incubated for 30 min at room temperature. […] The plates were sealed and incubated overnight at 4 °C then read using a PHERAstar (BMG), and the Delta F calculated: […]

[4] = biological target: T2, UCHL1; test: Competitive ABPP against ABP 2 in HEK293 cells, in-gel fluorescence and pulldown/UCHL1 immunoblot; type: cell-based; parameters: rapidly targets endogenous UCHL1 in cells; endogenous in cells; host or cells: HEK293; conditions: HEK293, compound 1 h, then 2 (20 nM) 10 min
[5] = biological target: T2, UCHL1; conditions: HEK293T, 1 h treatment, immunoblot

IC50 [2] [µM] | covalent modification of UCHL1 by LC-ESI-MS [3] | competition for UCHL1 labeling by ABP 2 (immunoblot) [4] | in-cell competition for HA-Ub-VME labeling of UCHL1 [5] | Compound | activity/selectivity in cross-screening against 20 DUBs [1]
> 10 | single modification | dose-dependent UCHL1 labeling reduction | concentration-dependent competition | N#CN1CCC[C@H]1C(=O)N1CCc2c(-c3c[nH]c4ncccc34)cccc21 [Compound 1] | exquisite selectivity
– | single modification | – | concentration-dependent competition | C#Cc1cnc2[nH]cc(-c3cccc4c3CCN4C(=O)[C@@H]3CCCN3C#N)c2c1 [Compound 2] | –
> 10 | – | no competition | – | N#CN1CCC[C@@H]1C(=O)N1CCc2c(-c3c[nH]c4ncccc34)cccc21 [Compound 3] | inactive

Compound | IC50 [2] [µM] | covalent modification of UCHL1 by LC-ESI-MS [3] | competition for UCHL1 labeling by ABP 2 (immunoblot) [4] | in-cell competition for HA-Ub-VME labeling of UCHL1 [5] | activity/selectivity in cross-screening against 20 DUBs [1]
CC(=O)O/N=C1\C(=O)N(Cc2cc(Cl)ccc2Cl)c2ccc(Cl)cc21 [LDN-57444, reference compound] | > 10 | – | – | – | –
